Measurements from US11691962B2 (eXIthera Pharmaceuticals, Inc., priority 2018, dated 2023).

What follows are compounds tested against Factor XIa (Homo sapiens (Human), UniProt P03951) (assay: Factor XIa enzyme inhibition assay (dose response, fluorogenic AMC substrate)). Conditions: read-out: hFXIa IC50.
Assay type: biochemical
Procedure, shortened: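 Fluorogenic progress curves (30 min, 1-min reads, 30° C) were recorded for 0.25 nM FXIa cleaving 50 μM Glp-Pro-Arg-AMC in Hepes pH 7.4 buffer with NaCl and Tween 20. Compounds were serially two-fold diluted, and IC50 was fitted with a Hill equation.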

Chain of Factor XIa (P03951 388-625): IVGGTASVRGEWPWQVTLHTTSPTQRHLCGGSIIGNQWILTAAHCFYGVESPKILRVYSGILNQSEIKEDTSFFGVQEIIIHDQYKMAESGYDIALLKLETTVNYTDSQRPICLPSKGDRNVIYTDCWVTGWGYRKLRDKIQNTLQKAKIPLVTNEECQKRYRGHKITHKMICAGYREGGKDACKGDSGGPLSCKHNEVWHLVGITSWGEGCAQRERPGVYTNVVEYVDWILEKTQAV
Chain of Factor XIa (P03951 19-387 partner): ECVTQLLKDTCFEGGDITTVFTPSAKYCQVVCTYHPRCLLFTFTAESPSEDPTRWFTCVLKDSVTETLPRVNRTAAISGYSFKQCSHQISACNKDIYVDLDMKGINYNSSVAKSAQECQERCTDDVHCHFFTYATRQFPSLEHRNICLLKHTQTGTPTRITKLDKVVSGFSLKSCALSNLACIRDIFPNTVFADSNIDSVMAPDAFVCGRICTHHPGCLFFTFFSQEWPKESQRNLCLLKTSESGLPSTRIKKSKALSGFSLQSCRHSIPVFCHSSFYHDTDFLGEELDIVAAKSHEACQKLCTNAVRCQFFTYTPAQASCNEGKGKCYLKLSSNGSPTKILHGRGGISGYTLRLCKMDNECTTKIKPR

| IC50 | Structure (SMILES) |
| --- | --- |
| 10 to 100 nM | CC[C@@H](NC(=O)N1C(=O)[C@H](Cc2cc(C)nc(N)c2)[C@H]1C(=O)N(C)c1ccnn1C)c1cccc(C)c1C [Compound 1-149, (2S,3R)-3-((2-amino-6-methylpyridin-4-yl)methyl)-N2-(1-methyl-1H-pyrazol-5-yl)-N1-((R)-1-(2,3-dimethylphenyl)propyl)-N2-methyl-4-oxoazetidine-1,2-dicarboxamide] |
| < 10 nM | CC[C@@H](NC(=O)N1C(=O)[C@H](Cc2cc(C)nc(N)c2)[C@H]1C(=O)N(C)c1ccnn1C)c1cccc(F)c1C [Compound 1-150, (2S,3R)-3-((2-amino-6-methylpyridin-4-yl)methyl)-N2-(1-methyl-1H-pyrazol-5-yl)-N1-((R)-1-(3-fluoro-2-methylphenyl)propyl)-N2-methyl-4-oxoazetidine-1,2-dicarboxamide] |
| < 10 nM | CC[C@@H](NC(=O)N1C(=O)[C@H](Cc2cc(C)nc(N)c2)[C@H]1C(=O)N(C)c1ccnn1C)c1ccc(F)c(C)c1 [Compound 1-153, (2S,3R)-3-((2-amino-6-methylpyridin-4-yl)methyl)-N2-(1-methyl-1H-pyrazol-5-yl)-N1-((R)-1-(4-fluoro-3-methylphenyl)propyl)-N2-methyl-4-oxoazetidine-1,2-dicarboxamide] |
| < 10 nM | CC[C@@H](NC(=O)N1C(=O)[C@H](Cc2cc(C)nc(N)c2)[C@H]1C(=O)N(C)c1ccnn1C)c1ccc(C)cc1 [Compound 1-154, (2S,3R)-3-((2-amino-6-methylpyridin-4-yl)methyl)-N2-(1-methyl-1H-pyrazol-5-yl)-N1-((R)-1-(4-methylphenyl)propyl)-N2-methyl-4-oxoazetidine-1,2-dicarboxamide] |
| < 10 nM | CC[C@@H](NC(=O)N1C(=O)[C@H](Cc2cc(C)nc(N)c2)[C@H]1C(=O)N(C)c1ccnn1C)c1ccc(F)cc1 [Compound 1-156, (2S,3R)-3-((2-amino-6-methylpyridin-4-yl)methyl)-N2-(1-methyl-1H-pyrazol-5-yl)-N1-((R)-1-(4-fluorophenyl)propyl)-N2-methyl-4-oxoazetidine-1,2-dicarboxamide] |
| 10 to 100 nM | CC[C@@H](NC(=O)N1C(=O)[C@H](Cc2cc(C)nc(N)c2)[C@H]1C(=O)N(C)c1ccnn1C)c1ccc(Cl)cc1 [Compound 1-157, (2S,3R)-3-((2-amino-6-methylpyridin-4-yl)methyl)-N2-(1-methyl-1H-pyrazol-5-yl)-N1-((R)-1-(4-chlorophenyl)propyl)-N2-methyl-4-oxoazetidine-1,2-dicarboxamide] |
| < 10 nM | CC[C@@H](NC(=O)N1C(=O)[C@H](Cc2cc(C)nc(N)c2)[C@H]1C(=O)N(C)c1ccnn1C)c1ccc(F)cc1C [Compound 1-159, (2S,3R)-3-((2-amino-6-methylpyridin-4-yl)methyl)-N2-(1-methyl-1H-pyrazol-5-yl)-N1-((R)-1-(4-fluoro-2-methylhenyl)propyl)-N2-methyl-4-oxoazetidine-1,2-dicarboxamide] |
| < 10 nM | CC[C@@H](NC(=O)N1C(=O)[C@H](Cc2cc(C)nc(N)c2)[C@H]1C(=O)N(C)c1ccnn1C)c1ccc(C)cc1F [Compound 1-160, (2S,3R)-3-((2-amino-6-methylpyridin-4-yl)methyl)-N2-(1-methyl-1H-pyrazol-5-yl)-N1-((R)-1-(2-fluoro-4-methylphenyl)propyl)-N2-methyl-4-oxoazetidine-1,2-dicarboxamide] |
| < 10 nM | CC[C@@H](NC(=O)N1C(=O)[C@H](Cc2cc(C)nc(N)c2)[C@H]1C(=O)N(C)c1ccnn1C)c1ccc(C)cc1C [Compound 1-161, (2S,3R)-3-((2-amino-6-methylpyridin-4-yl)methyl)-N2-(1-methyl-1H-pyrazol-5-yl)-N1-((R)-1-(2,4-dimethylphenyl)propyl)-N2-methyl-4-oxoazetidine-1,2-dicarboxamide] |
| < 10 nM | CC[C@@H](NC(=O)N1C(=O)[C@H](Cc2cc(C)nc(N)c2)[C@H]1C(=O)N(C)c1ccnn1C)c1cc(C)ccc1F [Compound 1-164, (2S,3R)-3-((2-amino-6-methylpyridin-4-yl)methyl)-N2-(1-methyl-1H-pyrazol-5-yl)-N1-((R)-1-(2-fluoro-5-methylphenyl)propyl)-N2-methyl-4-oxoazetidine-1,2-dicarboxamide] |
| 10 to 100 nM | CC[C@@H](NC(=O)N1C(=O)[C@H](Cc2ccnc(N)c2)[C@H]1C(=O)N(C)c1nncn1C)c1ccccc1 [Compound 1-165, (2S,3R)-3-((2-aminopyridin-4-yl)methyl)-N2-(4-methyl-4H-1,2,4-triazol-3-yl)-N1-((R)-1-phenylpropyl)-N2-methyl-4-oxoazetidine-1,2-dicarboxamide] |
| < 10 nM | CC[C@@H](NC(=O)N1C(=O)[C@H](Cc2cc(C)nc(N)c2)[C@H]1C(=O)N(C)c1ccnn1C)c1cc(C)ccc1C [Compound 1-166, (2S,3R)-3-((2-amino-6-methylpyridin-4-yl)methyl)-N2-(1-methyl-1H-pyrazol-5-yl)-N1-((R)-1-(2,5-dimethylphenyl)propyl)-N2-methyl-4-oxoazetidine-1,2-dicarboxamide] |
| < 10 nM | CC[C@@H](NC(=O)N1C(=O)[C@H](Cc2ccnc(N)c2)[C@H]1C(=O)N(C)c1nnco1)c1ccccc1 [Compound 1-167, (2S,3R)-3-((2-aminopyridin-4-yl)methyl)-N2-(1,3,4-oxadiazol-2-yl)-N1-((R)-1-phenylpropyl)-N2-methyl-4-oxoazetidine-1,2-dicarboxamide] |
| < 10 nM | CC[C@@H](NC(=O)N1C(=O)[C@H](Cc2ccnc(N)c2)[C@H]1C(=O)N(C)c1nncs1)c1ccccc1 [Compound 1-168, (2S,3R)-3-((2-aminopyridin-4-yl)methyl)-N2-(1,3,4-thiadiazol-2-yl)-N1-((R)-1-phenylpropyl)-N2-methyl-4-oxoazetidine-1,2-dicarboxamide] |
| 10 to 100 nM | CC[C@@H](NC(=O)N1C(=O)[C@H](Cc2cc(C)nc(N)c2)[C@H]1C(=O)N(C)c1cnn(C)c1)c1ccc(F)cc1 [Compound 1-169, (2S,3R)-3-((2-amino-6-methylpyridin-4-yl)methyl)-N2-(1-methyl-1H-pyrazol-4-yl)-N1-((R)-1-(4-fluorophenyl)propyl)-N2-methyl-4-oxoazetidine-1,2-dicarboxamide] |
| 10 to 100 nM | CC[C@@H](NC(=O)N1C(=O)[C@H](Cc2cc(C)nc(N)c2)[C@H]1C(=O)N(C)c1cnn(C)c1)c1ccc(Cl)cc1 [Compound 1-170, (2S,3R)-3-((2-amino-6-methylpyridin-4-yl)methyl)-N2-(1-methyl-1H-pyrazol-4-yl)-N1-((R)-1-(4-chlorophenyl)propyl)-N2-methyl-4-oxoazetidine-1,2-dicarboxamide] |
| 10 to 100 nM | CC[C@@H](NC(=O)N1C(=O)[C@H](Cc2cc(C)nc(N)c2)[C@H]1C(=O)N(C)c1cnn(C)c1)c1ccc(F)c(C)c1 [Compound 1-171, (2S,3R)-3-((2-amino-6-methylpyridin-4-yl)methyl)-N2-(1-methyl-1H-pyrazol-4-yl)-N1-((R)-1-(4-fluoro-3-methylphenyl)propyl)-N2-methyl-4-oxoazetidine-1,2-dicarboxamide] |
| < 10 nM | CC[C@@H](NC(=O)N1C(=O)[C@H](Cc2cc(C)nc(N)c2)[C@H]1C(=O)N(C)c1cnn(C)c1)c1ccc(C)c(F)c1 [Compound 1-172, (2S,3R)-3-((2-amino-6-methylpyridin-4-yl)methyl)-N2-(1-methyl-1H-pyrazol-4-yl)-N1-((R)-1-(3-fluoro-4-methylphenyl)propyl)-N2-methyl-4-oxoazetidine-1,2-dicarboxamide] |
| 10 to 100 nM | CC[C@@H](NC(=O)N1C(=O)[C@H](Cc2cc(C)nc(N)c2)[C@H]1C(=O)N(C)c1cnn(C)c1)c1cccc(C)c1C [Compound 1-173, (2S,3R)-3-((2-amino-6-methylpyridin-4-yl)methyl)-N2-(1-methyl-1H-pyrazol-4-yl)-N1-((R)-1-(2,3-dimethylphenyl)propyl)-N2-methyl-4-oxoazetidine-1,2-dicarboxamide] |
| 10 to 100 nM | CC[C@@H](NC(=O)N1C(=O)[C@H](Cc2cc(C)nc(N)c2)[C@H]1C(=O)N(C)c1cnn(C)c1)c1cccc(F)c1F [Compound 1-174, (2S,3R)-3-((2-amino-6-methylpyridin-4-yl)methyl)-N2-(1-methyl-1H-pyrazol-4-yl)-N1-((R)-1-(2,3-difluorophenyl)propyl)-N2-methyl-4-oxoazetidine-1,2-dicarboxamide] |
| < 10 nM | CC[C@@H](NC(=O)N1C(=O)[C@H](Cc2cc(C)nc(N)c2)[C@H]1C(=O)N(C)c1cnn(C)c1)c1ccc(C)c(C)c1 [Compound 1-175, (2S,3R)-3-((2-amino-6-methylpyridin-4-yl)methyl)-N2-(1-methyl-1H-pyrazol-4-yl)-N1-((R)-1-(3,4-dimethylphenyl)propyl)-N2-methyl-4-oxoazetidine-1,2-dicarboxamide] |
| 10 to 100 nM | CC[C@@H](NC(=O)N1C(=O)[C@H](Cc2cc(C)nc(N)c2)[C@H]1C(=O)N(C)c1cnn(C)c1)c1cc(C)ccc1C [Compound 1-176, (2S,3R)-3-((2-amino-6-methylpyridin-4-yl)methyl)-N2-(1-methyl-1H-pyrazol-4-yl)-N1-((R)-1-(2,5-dimethylphenyl)propyl)-N2-methyl-4-oxoazetidine-1,2-dicarboxamide] |
| 10 to 100 nM | CC[C@@H](NC(=O)N1C(=O)[C@H](Cc2cc(C)nc(N)c2)[C@H]1C(=O)N(C)c1cnn(C)c1)c1cc(C)ccc1F [Compound 1-177, (2S,3R)-3-((2-amino-6-methylpyridin-4-yl)methyl)-N2-(1-methyl-1H-pyrazol-4-yl)-N1-((R)-1-(2-fluoro-5-methylphenyl)propyl)-N2-methyl-4-oxoazetidine-1,2-dicarboxamide] |
| < 10 nM | CC[C@@H](NC(=O)N1C(=O)[C@H](Cc2cc(C)nc(N)c2)[C@H]1C(=O)N(C)c1cnn(C)c1)c1cc(F)ccc1C [Compound 1-178, (2S,3R)-3-((2-amino-6-methylpyridin-4-yl)methyl)-N2-(1-methyl-1H-pyrazol-4-yl)-N1-((R)-1-(5-fluoro-2-methylphenyl)propyl)-N2-methyl-4-oxoazetidine-1,2-dicarboxamide] |
